Usually EC50 stands for the concentration at which the effect is half-maximal.

The record followed here is US20230279016A1, “Tetrahydropyrazolopyrimidines and Related Analogs for Inhibiting YAP/TAZ-TEAD” (THE KATHOLIEKE UNIVERSITEIT LEUVEN, priority 2021, published 2023).

Holding throughout (assay type): cell-based
In test [1] the test system is NCI-H226 mesothelioma cell line. The experiment in a line: Mesothelioma cell line proliferation assay, NCI-H226. Particulars: Homo sapiens, NCI-H226, 144 h, NCI-H226, 6 days with compound, cell viability by ATPlite. A digest of the protocol:
(§1)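 Cells were seeded at 1500 cells/well in RPMI 1640 with 10% FBS, left overnight, then exposed to DMSO-dissolved compounds in dose-response for 6 days at 37 °C, 5% CO2. Viability was measured by ATPlite luminescence, converted to percent inhibition, and used to derive EC50.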
Background: ATP-based viability assays read luminescence as a measure of living cells.

For test [2], the system named is NCI-H2052 mesothelioma cell line. The test can be described thus: Mesothelioma cell line proliferation assay, NCI-H2052. Particulars: Homo sapiens, NCI-H2052, 144 h, NCI-H2052, 6 days with compound, cell viability by ATPlite. The essentials: as §1
In test [3] the test system is YAP/TAZ-TEAD transcription. The experiment in a line: Reporter gene assay for measuring the inhibition of YAP/TAZ-TEAD transcription (TEAD-responsive element luciferase reporter in Hek293T cells). Particulars: Homo sapiens, HEK-293T, 24 h, Hek293T cells transiently transfected with TEAD-responsive element luciferase reporter, 24 hours incubation. A digest of the protocol:
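Hek293T cells transiently transfected with TEAD-responsive luciferase reporter, exposed to compound for 24 h at 37° C/5% CO2, then read by luminescence. Percent inhibition normalized to vehicle (0%) and positive control inhibitor (100%); EC50 reported as activity ranges.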

Turning to `C=CC(=O)NCC1CN(Cc2ccc(C(F)(F)F)cc2)c2ccnn2C1` (stereo not drawn) [Cpd. No. 048, N-((4-(4-(trifluoro-methyl)benzyl)-4,5,6,7-tetrahydropyrazolo[1,5-a]pyrimidin-6-yl)methyl)acrylamide], the EC50 in test [1], in test [2] and in test [3] was < 1 µM throughout.

With `C=CC(=O)NCC1CN(Cc2cccc(C(F)(F)F)c2)c2ccnn2C1` (stereo not drawn) [Cpd. No. 052, N-((4-(3-(trifluoro-methyl)benzyl)-4,5,6,7-tetrahydropyrazolo[1,5-a]pyrimidin-6-yl)methyl)acrylamide], the half-maximal effective concentration (EC50) in test [1], in test [2] and in test [3] was < 1 µM each time.

On to `C=CC(=O)NCC1CN(c2ccc(C(F)(F)F)cc2)c2c(Br)cnn2C1` (stereo not drawn) [Cpd. No. 058, N-((3-bromo-4-(4-(trifluoromethyl)phenyl)-4,5,6,7-tetrahydropyrazolo[1,5-a]pyrimidin-6-yl)-methyl)acrylamide], for which the EC50 in test [1] is < 1 µM; in test [2] it was 1 to 10 µM; in test [3], < 1 µM.

As to `C=CC(=O)NCC1CNc2c(CC#Cc3ccccc3)cnn2C1` (stereo not drawn) [Cpd. No. 059, N-((3-(3-phenylprop-2-yn-1-yl)-4,5,6,7-tetrahydropyrazolo[1,5-a]pyrimidin-6-yl)-methyl)acrylamide], the values for the half-maximal effective concentration (EC50) in test [1], in test [2] and in test [3] were > 10 µM, > 10 µM and < 1 µM, respectively.

For `C=CC(=O)NC1CN(c2ccc(C(F)(F)F)cc2)c2ccnn2C1` (stereo not drawn) [Cpd. No. 061, N-(4-(4-(trifluoromethyl)phenyl)-4,5,6,7-tetrahydropyrazolo[1,5-a]pyrimidin-6-yl)acrylamide], the EC50 in test [1], in test [2] and in test [3] was < 1 µM in each case.

Turning to `C=CC(=O)NC1CN(c2ccc(OC(F)(F)F)cc2)c2ccnn2C1` (stereo not drawn) [Cpd. No. 063, N-(4-(4-(trifluoromethoxy)phenyl)-4,5,6,7-tetrahydropyrazolo[1,5-a]pyrimidin-6-yl)acrylamide], the EC50 in test [1], in test [2] and in test [3] was < 1 µM throughout.

For the compound `C=CC(=O)NCC1Cc2c(cnn2C)N(c2ccc(C(F)(F)F)cc2)C1` (stereo not drawn) [Cpd. No. 068, N-((1-methyl-4-(4-(trifluoromethyl)phenyl)-4,5,6,7-tetrahydro-1H-pyrazolo[4,3-b]pyridin-6-yl)methyl)acrylamide], the EC50 in test [1], in test [2] and in test [3] was < 1 µM each time.

As for `C=CC(=O)NCC1Cc2nn(C)cc2N(c2ccc(C(F)(F)F)cc2)C1` (stereo not drawn) [Cpd. No. 069, N-((2-methyl-4-(4-(trifluoromethyl)phenyl)-4,5,6,7-tetrahydro-2H-pyrazolo[4,3-b]pyridin-6-yl)methyl)acrylamide], the 50% effective concentration (EC50) in test [1], in test [2] and in test [3] was < 1 µM each time.

With `C=CC(=O)NCC1Cc2c(cnn2C)N(c2ccc(OC(F)(F)F)cc2)C1` (stereo not drawn) [Cpd. No. 070, N-((1-methyl-4-(4-(trifluoromethoxy)phenyl)-4,5,6,7-tetrahydro-1H-pyrazolo[4,3-b]pyridin-6-yl)methyl)acrylamide], the EC50 in test [1], in test [2] and in test [3] was < 1 µM each time.

Consider `C=CC(=O)NCC1Cc2nn(C)cc2N(c2ccc(OC(F)(F)F)cc2)C1` (stereo not drawn) [Cpd. No. 071, N-((2-methyl-4-(4-(trifluoromethoxy)phenyl)-4,5,6,7-tetrahydro-2H-pyrazolo[4,3-b]pyridin-6-yl)methyl)acrylamide], for which the EC50 in test [1], in test [2] and in test [3] was < 1 µM in each case.

In the case of `C=CC(=O)NCC1Cc2c(cnn2Cc2cccc(C(N)=O)c2)N(c2ccc(C(F)(F)F)cc2)C1` (stereo not drawn) [Cpd. No. 080, 3-((6-(acrylamido-methyl)-4-(4-(trifluoromethyl)phenyl)-4,5,6,7-tetrahydro-1H-pyrazolo[4,3-b]pyridin-1-yl)methyl)benzamide], the 50% effective concentration (EC50) in test [1], in test [2] and in test [3] was < 1 µM each time.

On to `C=CC(=O)NCC1Cc2nn(Cc3cccc(C(N)=O)c3)cc2N(c2ccc(C(F)(F)F)cc2)C1` (stereo not drawn) [Cpd. No. 081, 3-((6-(acrylamidomethyl)-4-(4-(trifluoromethyl)-phenyl)-4,5,6,7-tetrahydro-2H-pyrazolo[4,3-b]pyridin-2-yl)methyl)benzamide], for which the EC50 in test [1], in test [2] and in test [3] was < 1 µM in each case.

As to `O=C1NCCC12CN(c1ccc(C(F)(F)F)cc1)c1ccnn1C2` (stereo not drawn) [Cpd. No. 087, 4-(4-(trifluoromethyl)phenyl)-4,5-dihydro-7H-spiro[pyrazolo[1,5-a]pyrimidine-6,3′-pyrrolidin]-2′-one], the EC50 in test [1] is > 10 µM; in test [2], > 10 µM; in test [3] it was < 1 µM.

Regarding `C=CC(=O)N1CCC2(C1)CN(c1ccc(C(F)(F)F)cc1)c1ccnn1C2` (stereo not drawn) [Cpd. No. 088, 1-(4-(4-(trifluoromethyl)phenyl)-4,5-dihydro-7H-spiro[pyrazolo[1,5-a]pyrimidine-6,3′-pyrrolidin]-1′-yl)prop-2-en-1-one], the EC50 in test [1], in test [2] and in test [3] was < 1 µM throughout.
